Assay results as given in patent publication US20210369583A1, “COMPOSITIONS FOR PROVIDING SKIN CARE BENEFITS AND METHODS OF USE” (Danisco US Inc., priority 2018, published 2021).

What was measured:
Format in all cases: cell-based
MT-1H (Metallothionein) = experiment: Immunostaining of MT-1H in human skin explants, image analysis; conditions: after pollutants exposure
Description: 59 human skin explants of an average diameter of 14 mm (±1 mm) were prepared on an abdoplasty coming from a person. The explants were kept in survival in BEM culture medium at 37° C. in a humid, 5%-CO2 atmosphere.
The tested products were topically applied on the basis of 2 μl per cm^2 and spread using a small spatula twice a day (morning and evening) on day 0, 1, 2, 3 and 4.
On D4, the explants of the batches ML and PML were placed on the 3D grid with 900 μl of HBSS and placed into the PolluBox® system.
3 mL of the solution <<ML>> (supplemented with 150 μl/ml of NaCl 0.9%) were exposed by vaporization for 1 hour and half, as shown in the figure below.
Metallothionein (MT) is a unique heat-stable protein with a metal binding domain consisting of 20 cysteine residues. […] The immunostaining was performed using an automated slide processing system (Autostainer, Dako) and assessed by microscopical observation. […]
The images analyses were performed on all the images (9 to 12 images) of each batch using the CellD storing software (Olympus Microscopy, Matrix Optics (M)SdnBhd, Taman Mayhang, Maylasia). For each batch of explants, the percentage of the region of interest covered by the staining (stained surface percentage) was determined by image analysis. […]
Analyzed batches: T, P2, ML, P2ML (4 batches, 3 explants/batch, so 12 explants) at day 5 referred to as: TJ5, P2J5, MLJ5, P2MLJ5.

[1] = tested on: human living skin explant; experiment: TUNEL assay (UV-induced DNA damage) on human living skin explants; conditions: UV irradiated
Description: (§1) human skin explants of an average diameter of 12 mm (±1 mm) were prepared on an abdoplasty coming from a person). The explants were kept in survival in BEM culture medium at 37° C. in a humid, 5%-CO2 atmosphere.
(§2) On day 0 (D0), day 1, day 2 and day 3 (3 hours before irradiation), the tested products were applied topically on surface of skin explants at the rate of 2 mg/cm^2, twice a day for D1 and D2 and once on DO and D3. […] The medium was half renewed (1 ml per well) on day 2.
(§3) On D3, the culture media of all the batches was replaced by HBSS solution (Hank's Balanced Saline Solution; 1 ml per explant). The batches “UV” were irradiated by UVA+ UVB using a UV simulator Vibert Lourmat RMX 3W with a dose of 18 J/cm2 of UVA (4 MED, minimal erythemal dose) and 0.3 J/cm2 of UVB (2 MED). The unirradiated batches were kept in HBSS in the dark. At the end of the irradiation the explants were put back in 2 mL of BEM medium.
(§4) After fixation for 24 hours in buffered formalin, the samples were dehydrated and impregnated in paraffin using a Leica PEARL dehydration automat. The samples were embedded using a Leica EG 1160 embedding station. 5-μm-thick sections were made using a Leica RM 2125 Minot-type microtome, and the sections were mounted on Superfrost® histological glass slides. The frozen samples were cut into 7-μm-thick sections using a Leica CM 3050 cryostat. Sections were then mounted on Superfrost® plus silanized glass slides. The microscopical observations were realized using a Leica DMLB or Olympus BX43 microscope. Pictures were digitized with a numeric DP72 Olympus camera with CellD storing software.
DNA oxidization is a type of damage that can be promoted by reactive oxygen species (ROS), generated by UV exposure. […] The staining was assessed by microscopical observation. Batches analyzed were T, TUV, P1UV, P2UV, P3UV at day 4 also referred to as TJ4, TUVJ4, P1UVJ4, P2UVJ4, P3UVJ4 (T=Control batch non treated non irradiated; TJ4=T at Day 4 (D4); TUV: control batch non treated UV irradiated; TUVJ4=[…] at Day 4; P1J4: product A 4% non irradiated at D4; P2J4: product A 2% non irradiated at D4; P3J4: product A 1% non irradiated at D4; P1UV: product A 4% UV irradiated; P1UVJ4: product A 4% UV irradiated at D4 P2UV: product A 2% UV irradiated; P2UVJ4: product A 2% UV irradiated at D4; P3UV: product A 1% UV irradiated; P3UVJ4: product A 1% UV irradiated at D4

[2] = tested on: human living skin explant; experiment: Immunostaining of carbonylated proteins (FTZ) on human living skin explants
Description: as §1, §2, §3, §4
Protein carbonylation is a type of protein oxidation that can be promoted by reactive oxygen species (ROS), generated by UV exposure. FTZ marker assay was conducted by immunostaining in the living epidermis of human skin explant as follows: Carbonylated proteins were stained on frozen sections with the anti-carbonylated proteins probe (fluorescein-5-thiosemicarbazid-FTZ) (Lifetechnologies, Ref. F-121) diluted at 0.5 μM in MES-Na+ and incubated for 30 minutes in the dark and at room temperature. The staining was observed by epifluorescence and assessed by microscopical observations. Batches analyzed were T, TUV, P1UV, P2UV, P3UV at day 4 also referred to as TJ4, TUVJ4, P1UVJ4, P2UVJ4, P3UVJ4

[3] = tested on: human living skin explant; experiment: Cell viability of human living skin explants (UV study); conditions: day 4
Description: as §1, §2, §3, §4

O=C(O)[C@@H]1CCCN1 [Combination P4, L-Proline]
effect on pollutant-induced MT-1H (MT-1H (Metallothionein)): seems to strongly reduce the effect of the pollutants | activity against UV-induced DNA damage [1]: strong inhibition of the increase of DNA damage | effect on UV-induced carbonylated proteins ([2]; UV irradiated): inhibited the formation of carbonylated proteins | Carbonylated proteins (FTZ), variation vs TJ4 ([2]; non irradiated, day 4): ↔ (indicates no variation) | Cell Viability, variation vs TUVJ4 ([3]; UV irradiated): ↔ (indicates no variation) | Cell Viability, variation vs TJ4 ([3]; non irradiated): ↔ (indicates no variation)
